Assay results published in patent US20140081017A1, “Histone Deacetylase Inhibitors for Enhancing Activity of Antifungal Agents” (METHYLGENE INC., priority 2012, published 2014).
Values after ≈ are worked out from the molar mass of the structure shown. Read-outs that look alike come from different tables or passages of the source.

Tests used:
C. glabrata = test: Checkerboard FIC assay in combination with fluconazole (MIC alone and in combination, FICI); type: cell-based, Candida glabrata; conditions: for FICI of combination resulting in fluconazole MIC of: 2 ug/mL / FICI of combination resulting in fluconazole MIC of: 4 ug/mL / FICI of combination resulting in fluconazole MIC of: 8 ug/mL: FICI calculated using a fluconazole MIC of 16 μg/mL; for FICI of combination resulting in fluconazole MIC of: 2 ug/mL (value in parenthesis) / FICI of combination resulting in fluconazole MIC of: 4 ug/mL (value in parenthesis) / FICI of combination resulting in fluconazole MIC of: 8 ug/mL (value in parenthesis): FICI using a fluconazole MIC of 128 μg/mL; for MIC: Nakaseomyces glabratus; for Concentration of Methylgene compound to synergize fluconazole MIC to 2 ug/mL / Concentration of Methylgene compound to synergize fluconazole MIC to 4 ug/mL / Concentration of Methylgene compound to synergize fluconazole MIC to 8 ug/mL: in combination with fluconazole; for Concentration of Methylgene compound to synergize fluconazole MIC to 2 ug/mL: fluconazole MIC lowered to 2 ug/mL; for Concentration of Methylgene compound to synergize fluconazole MIC to 4 ug/mL: fluconazole MIC lowered to 4 ug/mL; for Concentration of Methylgene compound to synergize fluconazole MIC to 8 ug/mL: fluconazole MIC lowered to 8 ug/mL
Procedure: The ability of the compounds to synergize with azoles against C. glabrata was evaluated by the checkerboard assay, a common laboratory method used to evaluate synergy, antagonism, and indifference using fractional inhibitory concentrations (FICs) and FIC indices (FICI).
The test compounds were supplied as a powder and dissolved in dimethylsulfoxide (DMSO) on the day of assay. Stock solutions were prepared at 640 ug/mL. Fluconazole was dissolved in deionized water to a stock concentration of 320 ug/mL. All test articles were in solution under these conditions.
(§1) The test organisms and reference isolates were streaked for isolation on Sabouraud agar medium (yeasts) or potato dextrose agar (fungi). Colonies were picked by swab from the medium and resuspended in the appropriate broth containing cryoprotectant. The suspensions were aliquoted into cryogenic vials and maintained at −80° C.
(§2) Prior to testing, the yeast isolates were streaked from the frozen vials onto Sabouraud dextrose agar. The plates were incubated overnight at 35° C. The fungal isolate was grown on potato dextrose agar slants and was incubated for 7-10 days at room temperature.
(§3) Both yeast and fungal isolates were tested in RPMI medium buffered with 0.165 M MOPS (3-(N-morpholino)propanesulfonic acid). The pH of the medium was adjusted to 7.0 with 1 N NaOH. The medium was sterile filtered using a 0.2 um PES (polyethersulfone) filter and stored at 4° C. until used.
FIC values were determined using a broth microdilution method (CLSI; 1, 3). To prepare the test plates, automated liquid handlers (Multidrop 384, Labsystems, Helsinki, Finland; Biomek 2000 and Biomek FX, Beckman Coulter, Fullerton Calif.) were used to conduct serial dilutions and liquid transfers.
The wells of standard 96-well microdilution plates (Costar 3795) were filled with 150 uL of DMSO in columns 2-12. Three hundred microliters of each test compound was added to each well in Column 1 of the plates. The Biomek 2000 was used to make eleven 2-fold serial dilutions in each of these “test compound mother” plates. The wells of the “fluconazole mother plates” were filled with 150 uL of sterile water in rows B-H. Row A of these plates was filled with 300 uL of the fluconazole stock solution. Serial 2-fold dilutions were then prepared from top to bottom by hand, using a multichannel pipette in rows B-G. The “daughter plates” were loaded with 180 uL of RPMI using the Multidrop 384. The Biomek FX was used to transfer 5 uL of compound solution from each well of a fluconazole mother plate to the corresponding well in all of the daughter plates in a single step. Then the Biomek FX was used to transfer 5 uL of compound solution from each well of a test compound mother plate to the corresponding well of the corresponding test compound daughter plate (already containing fluconazole at the appropriate concentrations) in a single step. Row H and Column 12 each contained serial dilutions of the test agent and fluconazole alone, respectively, for determination of the MIC.
Standardized inoculum of each organism was prepared per CLSI methods (CLSI; 1, 3). For yeast isolates, colonies were picked from the primary plate and a suspension was prepared in 0.85% saline to equal a 0.5 McFarland turbidity standard. For the fungal isolate, 1 mL of 0.85% saline was dispensed onto a potato dextrose agar slant onto which the isolate had been inoculated 7-10 days previously. Using a swab, a suspension of the fungus was made. After a short time to allow the heavy particles to settle out, a small quantity of the supernatant was dispensed into 0.85% saline and the suspension was adjusted to equal a 0.5 McFarland turbidity standard. Both yeast and fungal isolates were diluted 1:100 in RPMI and then transferred to compartments of sterile reservoirs divided by length (Beckman Coulter). The Biomek 2000 was used to inoculate the plates. […]

Candida albicans = test: Minimal Inhibitory Concentration (MIC) assay, broth microdilution per CLSI; type: cell-based; conditions: Candida albicans, read-out: Minimum Inhibitory Concentrations against Yeast Isolates, Candida albicans;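 further: two read times 24 hr and 48 hr of incubation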
Procedure: (§4) The in vitro activities of the inventive compounds (compound(s) herein) against fungi and/or yeasts were determined with isolates Candida albicans, Candida glabrata and Candida parapsilosis. The comparator compounds included fluconazole, caspofungin and amphotericin B.
(§5) The compounds were supplied as a powder, and were dissolved in dimethylsulfoxide (DMSO) the day of assay. Stock solutions were prepared at 10 mg/mL and diluted to a starting stock concentration of 2.56 mg/mL. Amphotericin B was dissolved in DMSO to a stock concentration of 2.56 mg/mL. Fluconazole was dissolved in deionized water to a stock concentration of 2.56 mg/mL. Caspofungin was received as a stock solution of 3.2 mg/mL in DMSO and was diluted to a starting stock concentration of 2.56 mg/mL.
as §1, §2, §3
(§6) The MIC assay method followed the procedure described by the Clinical and Laboratory Standards Institute (CLSI; 1, 2, 3) and employed automated liquid handlers to conduct serial dilutions and liquid transfers. Automated liquid handlers included the Multidrop 384 (Labsystems, Helsinki, Finland), Biomek 2000 and Biomek FX (Beckman Coulter, Fullerton Calif.). The wells in columns 2-12 in standard 96-well microdilution plates (Costar 3795) were filled with 150 ul of 100% DMSO. These would become the ‘mother plates’ from which ‘daughter’ or test plates would be prepared. The compounds (300 uL at 40× the desired top concentration in the test plates) were dispensed into the appropriate well in Column 1 of the mother plates. The Biomek 2000 was used to make serial 1:1 dilutions through Column 11 in the “mother plate”. The wells of Column 12 contained no compounds and were the organism growth control wells.
(§7) The daughter plates were loaded with 185 uL per well of RPMI described above using the Multidrop 384. The daughter plates were prepared using the Biomek FX which transferred 5 μL of the compound solution from each well of a mother plate to the corresponding well of the daughter plate in a single step.
(§8) Standardized inoculum of each organism was prepared per CLSI methods. For yeast isolates, colonies were picked from the streak plate and a suspension was prepared in 0.85% saline. For the fungal isolate, 1 mL of 0.85% saline was dispensed onto the potato dextrose agar slant that had been inoculated 7-10 days previously. Using a swab, a suspension of the fungus was made. After a short time to allow the heavy particles to settle out, a small quantity of the supernatant was dispensed into 0.85% saline and the suspension adjusted to equal a 0.5 McFarland turbidity standard. Both yeast and fungal isolates were diluted 1:100 in RPMI and then transferred to compartments of sterile reservoirs divided by length (Beckman Coulter). The Biomek 2000 was used to inoculate the plates. Daughter plates were placed on the Biomek 2000 work surface reversed so that inoculation took place from low to high compound concentration. The Biomek 2000 delivered 10 μL of standardized inoculum into each well. Thus, the wells of the daughter plates ultimately contained 185 uL of RPMI, 5 uL of the compound solution, and 10 uL of inoculum. […]

Candida parapsilosis = test: as above; type: cell-based; conditions: Lodderomyces parapsilosis, read-out: Minimum Inhibitory Concentrations against Yeast Isolates, Candida parapsilosis;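 further: two read times 24 hr and 48 hr of incubation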
Procedure: as §4, §5, §1, §2, §3, §6, §7, §8

Candida glabrata = test: as above; type: cell-based; conditions: Nakaseomyces glabratus, read-out: Minimum Inhibitory Concentrations against Yeast Isolates, Candida glabrata;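 further: two read times 24 hr and 48 hr of incubation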
Procedure: as §4, §5, §1, §2, §3, §6, §7, §8

[1] = MIC of the example compound alone against C. glabrata in the checkerboard assay, approximately 48 hr, read-out: Methylgene MIC
[2] = test compound alone, C. glabrata, approx. 48 hr at 35° C., read-out: Compound MIC
[3] = 24 hr reading (first value of cell 24 hr/48 hr)
[4] = 48 hr reading (second value of cell 24 hr/48 hr)

SMILES | FICI of combination resulting in fluconazole MIC of: 2 ug/mL (C. glabrata; C. glabrata) | FICI of combination resulting in fluconazole MIC of: 4 ug/mL (C. glabrata; C. glabrata) | FICI of combination resulting in fluconazole MIC of: 8 ug/mL (C. glabrata; C. glabrata) | FICI of combination resulting in fluconazole MIC of: 2 ug/mL (value in parenthesis) (C. glabrata; C. glabrata) | FICI of combination resulting in fluconazole MIC of: 4 ug/mL (value in parenthesis) (C. glabrata; C. glabrata) | FICI of combination resulting in fluconazole MIC of: 8 ug/mL (value in parenthesis) (C. glabrata; C. glabrata) | MIC (C. glabrata; [1]) | MIC (C. glabrata; [2]) | Concentration of Methylgene compound to synergize fluconazole MIC to 2 ug/mL (C. glabrata; C. glabrata) | Concentration of Methylgene compound to synergize fluconazole MIC to 4 ug/mL (C. glabrata; C. glabrata) | Concentration of Methylgene compound to synergize fluconazole MIC to 8 ug/mL (C. glabrata; C. glabrata) | MIC (Candida albicans; [3]) | MIC (Candida albicans; [4]) | MIC (Candida parapsilosis; [3]) | MIC (Candida parapsilosis; [4]) | MIC (Candida glabrata; [3]) | MIC (Candida glabrata; [4]) | Multiple of compound MIC to synergize fluconazole MIC to 2 ug/mL (C. glabrata; concentration in combination as multiple of the compound's MIC alone, fluconazole MIC 2 ug/mL) | Multiple of compound MIC to synergize fluconazole MIC to 4 ug/mL (C. glabrata; concentration in combination as multiple of the compound's MIC alone, fluconazole MIC 4 ug/mL) | Multiple of compound MIC to synergize fluconazole MIC to 8 ug/mL (C. glabrata; concentration in combination as multiple of the compound's MIC alone, fluconazole MIC 8 ug/mL)
O=C(Cc1ccc(CCCCc2ccc(CC(=O)NO)cc2)cc1)NO [Example 7, 2,2′-(4,4′-(butane-1,4-diyl)bis(4,1-phenylene))bis(N-hydroxyacetamide)] | > 0.125 | > 0.188 | > 0.281 | > 0.078 | > 0.094 | > 0.094 | > 4 µg/mL | > 4 µg/mL | 0.5 µg/mL | 0.5 µg/mL | 0.25 µg/mL | > 8 µg/mL | > 8 µg/mL | > 8 µg/mL | > 8 µg/mL | 0.5 µg/mL (≈ 1.4 µM) | > 8 µg/mL |  |  | 
O=C(Cc1ccc(CCCCC2CCCCC2)cc1)NO [Example 8, 2-(4-(4-cyclohexylbutyl)phenyl)-N-hydroxyacetamide] | 0.543 | 0.605 | 0.730 | 0.496 | 0.511 | 0.543 | 0.25 µg/mL | 0.25 µg/mL | 0.12 µg/mL | 0.12 µg/mL | 0.12 µg/mL | 0.25 µg/mL (≈ 0.864 µM) | 0.25 µg/mL (≈ 0.864 µM) | 0.12 µg/mL (≈ 0.415 µM) | 0.25 µg/mL (≈ 0.864 µM) | 0.12 µg/mL (≈ 0.415 µM) | 0.12 µg/mL (≈ 0.415 µM) | (½x) | (½x) | (½x)
